Reference: patent US20150150878A1, “Methods For Inhibiting Viruses By Targeting Cathepsin-L Cleavage Sites In The Viruses' Glycoproteins” (priority 2012, published 2015)
Values joined by “and” are separate entries in the source; they are usually repeats but may differ in a detail not shown here. Identical values can stand only once. Counter-ions that a name gives are not always drawn. Like-named read-outs stand apart in the source and are kept apart here. Residues, ends and D or L forms follow the SMILES beside them. *: point of attachment. Cbz = O=C(OCc1ccccc1)*

Experiments:
[1] = test system: SARS-CoV-S pseudotyped virus; assay: microbe, parasite or virus in culture; assay type: cell-based; conditions: for IC50: read-out: IC50 against SARS-CoV-S pseudotyped virus; for inhibition at 10 µM: read-out: inhibition of SARS-CoV pseudotyped virus entry
cathepsin L [2] = molecular target: T1, cathepsin L (Homo sapiens, UniProt P07711); assay type: biochemical
T1 sequence (P07711 114-333): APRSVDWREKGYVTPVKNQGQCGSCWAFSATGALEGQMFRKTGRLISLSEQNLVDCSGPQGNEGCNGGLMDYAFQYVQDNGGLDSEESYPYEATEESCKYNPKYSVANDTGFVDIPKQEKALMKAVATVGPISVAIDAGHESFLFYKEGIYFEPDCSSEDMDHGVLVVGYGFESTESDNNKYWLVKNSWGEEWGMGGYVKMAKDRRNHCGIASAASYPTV

[3] = test system: EBOV-GP pseudotyped virus; assay: microbe, parasite or virus in culture; assay type: cell-based, Ebola virus; conditions: for IC50: read-out: IC50 against EBOV pseudotyped virus; for inhibition at 10 µM: read-out: inhibition of EBOV pseudotyped virus entry
cathepsin L [4] = molecular target: T1, cathepsin L; assay type: biochemical; set-up: human cathepsin L purified from human liver (Sigma Aldrich); purchased Sigma Aldrich; host or cells: human liver (tissue-purified)
cathepsin L [5] = molecular target: T1, cathepsin L; assay type: biochemical; set-up: human cathepsin L purified from human liver (Sigma Aldrich); purchased Sigma Aldrich; host or cells: human liver (tissue-purified); remark: listed apart in the source
cathepsin L [6] = molecular target: T1, cathepsin L; assay type: biochemical; set-up: human cathepsin L purified from human liver (Sigma Aldrich); purchased Sigma Aldrich; host or cells: human liver (tissue-purified); remark: listed apart in the source
cathepsin L [7] = molecular target: T1, cathepsin L; assay type: biochemical; set-up: human cathepsin L purified from human liver (Sigma Aldrich); purchased Sigma Aldrich; host or cells: human liver (tissue-purified); remark: listed apart in the source
cathepsin L [8] = molecular target: T1, cathepsin L; assay type: biochemical; set-up: human cathepsin L purified from human liver (Sigma Aldrich); purchased Sigma Aldrich; host or cells: human liver (tissue-purified); remark: listed apart in the source
[9] = test system: SARS-CoV pseudotyped virus; assay type: cell-based
cathepsin L [10] = molecular target: T1, cathepsin L; assay type: biochemical; remark: listed apart in the source
[11] = Severe acute respiratory syndrome coronavirus, 72 h

## CCNc1nc(NC(C)(C)C)nc(N(C#N)CC(=O)OC)n1 [Compound 7402683, methyl 2-(N-(4-(tert-butylamino)-6-(ethylamino)-1,3,5-triazin-2-yl)cyanamido)acetate]
293FT cells
  cytotoxic effect on 293FT cells: no significant cytotoxicity
[1]; 10 µM
  inhibition of SARS-CoV pseudotyped virus entry: 68.3%
[1]
  IC50: 6 µM
Cathepsin L [2]
  inhibition of Cat L mediated cleavage of SARS-CoV-S-flag protein: dose dependent inhibition
[3]; 10 µM
  inhibition of EBOV pseudotyped virus entry: 53.3%
[3]
  IC50: 10 µM

## O=c1[nH]c2ccc(S(=O)(=O)Nc3ccc(Cl)c(Cl)c3)cc2o1 [Compound 7914021, N-(3,4-dichlorophenyl)-2-oxo-2,3-dihydrobenzo[d]oxazole-6-sulfonamide]
293FT cells
  cytotoxic effect on 293FT cells: toxic
293FT cells; human
  cytotoxicity: 20-100%
Cathepsin L [4]
  Inhibition of cleavage of SARS peptide by Cathepsin-L: 71.7%
  percentage inhibition against SARS peptide: 85.2%
[1]; [11]
  inhibition at 10 µM: 27.1%
[3]; Zaire ebolavirus, 72 h
  inhibition at 10 µM: 51.5%
Cathepsin L [5]
  Inhibition of cleavage of NPY peptide by Cathepsin-L: 13.1%
  percentage inhibition against human Pro-NPY peptide: 21.9%
Cathepsin L [6]
  Inhibition of cleavage of Hendra peptide by Cathepsin-L: 25.4%
  percentage inhibition against Hendra peptide: 52.2%
Cathepsin L [7]
  Inhibition of cleavage of Nipah peptide by Cathepsin-L: 53.6%
  percentage inhibition against Nipah peptide: 82%
Cathepsin L [8]
  Inhibition of cleavage of Ebola peptide by Cathepsin-L: 36%
  percentage inhibition against Ebola peptide: 83.8%

## O=C[C@H](Cc1ccc(O)cc1)NC(=O)[C@H](Cc1ccccc1)NC(=O)OCc1ccccc1 [cathepsin L inhibitor, Z-Phe-Tyr-CHO] (Cbz-Phe-Tyr-aldehyde)
[9]
  inhibition of SARS-CoV pseudotyped virus entry: 60% and 58%

## COC(=O)CN(C#N)c1nc(NC(C)C)nc(NC(C)C)n1 [Compound 5705213, methyl 2-(N-(4,6-bis(isopropylamino)-1,3,5-triazin-2-yl)cyanamido)acetate]
293FT cells; human
  cell viability: over 80%
Cathepsin L [10]
  change of Vmax in presence of the inhibitor: decrease
  mechanism of inhibition: mixed inhibitor
Cathepsin L [4]
  Inhibition of cleavage of SARS peptide by Cathepsin-L: 79.8%
  percentage inhibition against SARS peptide: 90.1%
[1]; [11]
  IC50: 9 µM
  inhibition at 10 µM: 64.7%
Cathepsin L [2]
  inhibition of Cat L mediated cleavage of SARS-CoV-S-flag protein: dose dependent inhibition
[9]
  inhibition of SARS-CoV pseudotyped virus entry: 50% and 60%
[3]; Zaire ebolavirus, 72 h
  IC50: 15 µM
  inhibition at 10 µM: 39.8%
Cathepsin L [5]
  Inhibition of cleavage of NPY peptide by Cathepsin-L: 18%
  percentage inhibition against human Pro-NPY peptide: 20%
Cathepsin L [6]
  Inhibition of cleavage of Hendra peptide by Cathepsin-L: 84.3%
  percentage inhibition against Hendra peptide: 94.2%
Cathepsin L [7]
  Inhibition of cleavage of Nipah peptide by Cathepsin-L: 76.3%
  percentage inhibition against Nipah peptide: 90.7%
Cathepsin L [8]
  Inhibition of cleavage of Ebola peptide by Cathepsin-L: 42%
  percentage inhibition against Ebola peptide: 81.3%

## CN(C)C(=O)COC(=O)Cc1ccc(OC(=O)c2ccc(NC(=N)N)cc2)cc1 [protease inhibitor, Camostat mesylate]
[9]
  inhibition of SARS-CoV pseudotyped virus entry: 70%
